In PMC4501006, “Preliminary Characterization and In Vivo Studies of Structurally Identical ^18F- and ^125I-Labeled Benzyloxybenzenes for PET/SPECT Imaging of β-Amyloid Plaques” (Scientific Reports, 2015):
“And” between values parts separate entries of the source, which are not always exact repeats. Equal values may be shown once.

How the values were obtained:
[1] = In vivo biodistribution in normal ICR mice; conditions: i.v.
Experimental: Histograms of brain and intestine uptake were presented in Fig. 6 for comparison, while detailed data concerning the in vivo biodistribution in normal ICR mice were collected in Table S3 in Supplementary information. […] [^125I]7a and [^125I]12a were rapidly cleared from the normal brain, with only small amounts of radioactivity remaining at 60 min post-injection (0.55% ID/g for [^125I]7a and 0.37% ID/g for [^125I]12a). […] In addition, no significant deiodination was observed (less than 0.5% ID in the thyroid at 60 min).
As the specific activity of ^18F-labeled ligands (about 60 GBq/μmol) was slightly lower than that of corresponding no-carrier-added ^125I-labeled ligands (81 GBq/μmol), the impact of specific activity on pharmacokinetics was studied. In vivo biodistribution of radioactivity after injection of carrier-added [^125I]7a with equal specific activity to corresponding [^18F]7a (60 GBq/μmol) was conducted in normal ICR mice through the same procedure.
A structural model of an Aβ fiber (PDB ID: 2LMO) derived from solid state NMR was downloaded from the RCSB Protein Data Bank (www.rcsb.org/pdb). Geometric optimization was performed using Gaussian 09 at the B3LYP/6–31 G and 3-21G levels in the water phase. Molecular docking was performed using AutoDock4.0, and the docking results were graphed with VMD 1.9.1 software. SYBYL-X 1.1 software was used to predict the binding affinities with previously constructed 3D-QSAR models. All reagents for chemical synthesis were used as purchased without further purification. [^125I]NaI was purchased from PerkinElmer and ^18F^– was kindly provided by the Chinese PLA General Hospital. ^1H and ^13C NMR spectra were recorded on a Bruker Avance III NMR spectrometer (400 MHz for ^1H; 101 MHz for ^13C) in CDCl3 or DMSO-d6 solutions at room temperature. Mass spectra were acquired with a GCT CA127 Micronass UK instrument. X-ray crystallographic data of compound 12a were collected on a Bruker Smart APEX II diffractometer (Bruker Co., Germany) and deposited at the Cambridge Crystallographic Data Centre as supplementary publication (no. CCDC 1063679). HPLC analysis was performed on a Shimadzu SCL-20 AVP equipped with a Bioscan Flow Count 3200 NaI/PMT γ-radiation scintillation detector and a SPD-20A UV detector, λ = 254 nm. A Venusil MP C18 reverse phase column (Agela Technologies, 5 μm, 4.6 × 250 mm) was used for separations and purity determinations with a binary gradient system (acetonitrile: water = 80%: 20%) at a 1.0 mL/min flow rate. Fluorescent observation was performed on the Axio Observer Z1 inverted fluorescence microscope (Zeiss, Germany) equipped with a DAPI filter set (excitation, 405 nm). Post-mortem brain sections from an autopsy-confirmed AD subject and a control subject were acquired from the Chinese Brain Bank. Transgenic mice (APPswe/PSEN1, male) and wild-type mice (C57BL6, male) were purchased from the Institute of Laboratory Animal Science, Chinese Academy of Medical Sciences. Normal ICR mice (20–22 g, male) were used for in vivo biodistribution, dynamic PET/CT and SPECT/CT scans, and biostability experiments. All experiments on mice were performed in accordance with the guidelines approved by the animal care committee of Beijing Normal University and Xiamen University.

[2] = Partition coefficient determination (log D); type: physicochemical
Experimental: An ideal Aβ imaging probe would combine a high binding affinity to Aβ plaques and excellent pharmacokinetics with high initial brain uptake and rapid washout from normal brain regions. Thus, the partition coefficients of these four radiolabeled ligands were determined to estimate their ability to penetrate the BBB.

[3] = carrier-added, SA ≈ 60 GBq/μmol, 2 min
[4] = carrier-added, SA ≈ 60 GBq/μmol, 10 min
[5] = carrier-added, SA ≈ 60 GBq/μmol, 30 min
[6] = carrier-added, SA ≈ 60 GBq/μmol, 60 min

Biodistribution of radioactivity, blood [1, 3]: 3.30 ± 0.43 % injected dose per gram | Biodistribution of radioactivity, brain [1, 3]: 5.39 % injected dose per gram | Biodistribution of radioactivity, heart [1, 3]: 7.34 ± 0.69 % injected dose per gram | Biodistribution of radioactivity, intestine [1, 3]: 4.57 ± 0.96 % injected dose per organ | Biodistribution of radioactivity, kidney [1, 3]: 9.80 ± 1.05 % injected dose per gram | Biodistribution of radioactivity, liver [1, 3]: 12.12 ± 2.01 % injected dose per gram | Biodistribution of radioactivity, lung [1, 3]: 7.77 ± 0.18 % injected dose per gram | Biodistribution of radioactivity, muscle [1, 3]: 3.37 ± 0.50 % injected dose per gram | Biodistribution of radioactivity, pancreas [1, 3]: 6.79 ± 1.53 % injected dose per gram | Biodistribution of radioactivity, spleen [1, 3]: 3.63 ± 0.83 % injected dose per gram | Biodistribution of radioactivity, stomach [1, 3]: 1.15 ± 0.21 % injected dose per organ | Biodistribution of radioactivity, thyroid [1, 3]: 0.12 ± 0.03 % injected dose per organ | Biodistribution of radioactivity, brain ([1]; carrier-added, SA ≈ 60 GBq/μmol, 2 min, listed as [125I]7a): 5.39 ± 0.36 % injected dose per gram | Biodistribution of radioactivity, blood [1, 4]: 2.31 ± 0.22 % injected dose per gram | Biodistribution of radioactivity, brain [1, 4]: 3.51 ± 0.36 % injected dose per gram | Biodistribution of radioactivity, heart [1, 4]: 2.32 ± 0.15 % injected dose per gram | Biodistribution of radioactivity, intestine [1, 4]: 8.51 ± 0.48 % injected dose per organ | Biodistribution of radioactivity, kidney [1, 4]: 10.01 ± 1.43 % injected dose per gram | Biodistribution of radioactivity, liver [1, 4]: 11.30 ± 0.58 % injected dose per gram | Biodistribution of radioactivity, lung [1, 4]: 6.50 ± 0.69 % injected dose per gram | Biodistribution of radioactivity, muscle [1, 4]: 1.42 ± 0.20 % injected dose per gram | Biodistribution of radioactivity, pancreas [1, 4]: 2.79 ± 0.35 % injected dose per gram | Biodistribution of radioactivity, spleen [1, 4]: 1.53 ± 0.23 % injected dose per gram | Biodistribution of radioactivity, stomach [1, 4]: 0.74 ± 0.09 % injected dose per organ | Biodistribution of radioactivity, thyroid [1, 4]: 0.11 ± 0.01 % injected dose per organ | Biodistribution of radioactivity, blood [1, 5]: 1.39 ± 0.15 % injected dose per gram | Biodistribution of radioactivity, brain [1, 5]: 0.97 ± 0.11 % injected dose per gram | Biodistribution of radioactivity, heart [1, 5]: 0.96 ± 0.13 % injected dose per gram | Biodistribution of radioactivity, intestine [1, 5]: 18.87 ± 2.27 % injected dose per organ | Biodistribution of radioactivity, kidney [1, 5]: 6.25 ± 1.23 % injected dose per gram | Biodistribution of radioactivity, liver [1, 5]: 6.29 ± 0.22 % injected dose per gram | Biodistribution of radioactivity, lung [1, 5]: 4.30 ± 0.58 % injected dose per gram | Biodistribution of radioactivity, muscle [1, 5]: 0.95 ± 0.08 % injected dose per gram | Biodistribution of radioactivity, pancreas [1, 5]: 1.06 ± 0.16 % injected dose per gram | Biodistribution of radioactivity, spleen [1, 5]: 0.62 ± 0.03 % injected dose per gram | Biodistribution of radioactivity, stomach [1, 5]: 1.67 ± 0.33 % injected dose per organ | Biodistribution of radioactivity, thyroid [1, 5]: 0.12 ± 0.04 % injected dose per organ | Biodistribution of radioactivity, blood [1, 6]: 0.83 ± 0.06 % injected dose per gram | Biodistribution of radioactivity, brain [1, 6]: 0.37 % injected dose per gram | Biodistribution of radioactivity, heart [1, 6]: 0.55 ± 0.10 % injected dose per gram | Biodistribution of radioactivity, intestine [1, 6]: 25.30 ± 3.94 % injected dose per organ | Biodistribution of radioactivity, kidney [1, 6]: 3.40 ± 0.48 % injected dose per gram | Biodistribution of radioactivity, liver [1, 6]: 3.31 ± 0.37 % injected dose per gram | Biodistribution of radioactivity, lung [1, 6]: 1.91 ± 0.29 % injected dose per gram | Biodistribution of radioactivity, muscle [1, 6]: 0.72 ± 0.20 % injected dose per gram | Biodistribution of radioactivity, pancreas [1, 6]: 0.57 ± 0.05 % injected dose per gram | Biodistribution of radioactivity, spleen [1, 6]: 0.36 ± 0.03 % injected dose per gram | Biodistribution of radioactivity, stomach [1, 6]: 1.04 ± 0.30 % injected dose per organ | Biodistribution of radioactivity, thyroid [1, 6]: 0.22 ± 0.05 % injected dose per organ | Biodistribution of radioactivity, brain ([1]; carrier-added, SA ≈ 60 GBq/μmol, 60 min, listed as [125I]7a): 0.37 ± 0.05 % injected dose per gram | brain2 min/brain60 min ratio [1]: 12.8 | Biodistribution of radioactivity, blood ([1]; 2 min): 5.03 ± 0.20 % injected dose per gram | Biodistribution of radioactivity, heart ([1]; 2 min): 9.70 ± 2.25 % injected dose per gram | Biodistribution of radioactivity, intestine ([1]; 2 min): 6.46 ± 0.79 % injected dose per organ | Biodistribution of radioactivity, kidney ([1]; 2 min): 12.03 ± 1.20 % injected dose per gram | Biodistribution of radioactivity, liver ([1]; 2 min): 22.45 ± 3.88 % injected dose per gram | Biodistribution of radioactivity, lung ([1]; 2 min): 10.78 ± 2.33 % injected dose per gram | Biodistribution of radioactivity, muscle ([1]; 2 min): 3.72 ± 0.51 % injected dose per gram | Biodistribution of radioactivity, pancreas ([1]; 2 min): 8.15 ± 1.09 % injected dose per gram | Biodistribution of radioactivity, spleen ([1]; 2 min): 3.86 ± 0.21 % injected dose per gram | Biodistribution of radioactivity, stomach ([1]; 2 min): 1.32 ± 0.21 % injected dose per organ | Biodistribution of radioactivity, thyroid ([1]; 2 min): 0.12 ± 0.02 % injected dose per organ | Biodistribution of radioactivity, brain ([1]; 2 min, listed as [125I]7a): 7.04 ± 0.89 % injected dose per gram | Biodistribution of radioactivity, blood ([1]; 10 min): 3.03 ± 0.48 % injected dose per gram | Biodistribution of radioactivity, brain ([1]; 10 min): 2.73 ± 0.25 % injected dose per gram | Biodistribution of radioactivity, heart ([1]; 10 min): 2.01 ± 0.14 % injected dose per gram | Biodistribution of radioactivity, intestine ([1]; 10 min): 17.21 ± 2.33 % injected dose per organ | Biodistribution of radioactivity, kidney ([1]; 10 min): 9.53 ± 1.58 % injected dose per gram | Biodistribution of radioactivity, liver ([1]; 10 min): 14.43 ± 2.37 % injected dose per gram | Biodistribution of radioactivity, lung ([1]; 10 min): 7.44 ± 1.59 % injected dose per gram | Biodistribution of radioactivity, muscle ([1]; 10 min): 1.28 ± 0.11 % injected dose per gram | Biodistribution of radioactivity, pancreas ([1]; 10 min): 2.07 ± 0.30 % injected dose per gram | Biodistribution of radioactivity, spleen ([1]; 10 min): 1.32 ± 0.13 % injected dose per gram | Biodistribution of radioactivity, stomach ([1]; 10 min): 1.08 ± 0.24 % injected dose per organ | Biodistribution of radioactivity, thyroid ([1]; 10 min): 0.09 ± 0.02 % injected dose per organ | Biodistribution of radioactivity, blood ([1]; 30 min): 2.17 ± 0.31 % injected dose per gram | Biodistribution of radioactivity, brain ([1]; 30 min): 1.05 ± 0.22 % injected dose per gram | Biodistribution of radioactivity, heart ([1]; 30 min): 1.65 ± 0.43 % injected dose per gram | Biodistribution of radioactivity, intestine ([1]; 30 min): 19.88 ± 4.22 % injected dose per organ | Biodistribution of radioactivity, kidney ([1]; 30 min): 6.71 ± 0.78 % injected dose per gram | Biodistribution of radioactivity, liver ([1]; 30 min): 12.35 ± 2.83 % injected dose per gram | Biodistribution of radioactivity, lung ([1]; 30 min): 4.25 ± 0.41 % injected dose per gram | Biodistribution of radioactivity, muscle ([1]; 30 min): 1.29 ± 0.31 % injected dose per gram | Biodistribution of radioactivity, pancreas ([1]; 30 min): 2.61 ± 0.59 % injected dose per gram | Biodistribution of radioactivity, spleen ([1]; 30 min): 1.26 ± 0.20 % injected dose per gram | Biodistribution of radioactivity, stomach ([1]; 30 min): 4.38 ± 1.00 % injected dose per organ | Biodistribution of radioactivity, thyroid ([1]; 30 min): 0.12 ± 0.01 % injected dose per organ | Biodistribution of radioactivity, blood ([1]; 60 min): 1.96 ± 0.31 % injected dose per gram | Biodistribution of radioactivity, brain ([1]; 60 min): 0.55 % injected dose per gram | Biodistribution of radioactivity, heart ([1]; 60 min): 1.00 ± 0.18 % injected dose per gram | Biodistribution of radioactivity, intestine ([1]; 60 min): 20.21 ± 7.78 % injected dose per organ | Biodistribution of radioactivity, kidney ([1]; 60 min): 6.56 ± 1.10 % injected dose per gram | Biodistribution of radioactivity, liver ([1]; 60 min): 5.15 ± 1.09 % injected dose per gram | Biodistribution of radioactivity, lung ([1]; 60 min): 4.04 ± 1.63 % injected dose per gram | Biodistribution of radioactivity, muscle ([1]; 60 min): 1.36 ± 0.25 % injected dose per gram | Biodistribution of radioactivity, pancreas ([1]; 60 min): 1.97 ± 0.48 % injected dose per gram | Biodistribution of radioactivity, spleen ([1]; 60 min): 1.14 ± 0.56 % injected dose per gram | Biodistribution of radioactivity, stomach ([1]; 60 min): 2.44 ± 0.97 % injected dose per organ | Biodistribution of radioactivity, thyroid ([1]; 60 min): 0.16 ± 0.03 % injected dose per organ | Biodistribution of radioactivity, brain ([1]; 60 min, listed as [125I]7a): 0.55 ± 0.11 % injected dose per gram | logD [2]: 3.96 ± 0.22
Structure (SMILES): FCCOc1ccc(OCc2ccc([125I])cc2)cc1 [[^125I]7a]
Biodistribution of radioactivity, brain ([1]; 2 min): > 5 % injected dose per gram and 7.04 % injected dose per gram
